Source: patent US20150250167A1, “COMPOSITION FOR NOXIOUS ORGANISMS-CONTROLLING AGENT AND METHOD FOR USING THE SAME” (priority 2001, published 2015)
Read-outs that look alike come from different tables or passages of the source.

Experiments:
[1] = system: Brown Rice Planthopper (Nilaparvata lugens); assay: Insecticidal test on brown rice planthopper, rice seedling dipping; format: in vivo; conditions: single agent; for Death rate (%) After 1 days: after 1 day
Text: Insecticidal Test on Brown Rice Planthopper (Nilaparvata lugens)
Rice seedlings (variety: Nihombare) were dipped in a solution of an agent diluted to a predetermined concentration for 30 seconds. After air-dryness, each seedling was introduced into a glass-made test tube having a diameter of 1.8 cm and a height of 20 cm, and inoculated with ten 3rd inster nimphs of brown rice planthopper. Then, the test tube was stoppered with cotton. One day after and four days after the treatment, the number of alive insects was counted, based on which the insect death rate was calculated.

[2] = system: Green Peach Aphid (Myzus persicae); assay: Insecticidal test on green peach aphid, spraying of Chinese cabbage, control value; format: in vivo; conditions: single agent, 6 days after spraying
[3] = system: Smaller Tea Tortrix (Adoxophyes orana fosciota); assay: Insecticidal test on smaller tea tortrix, tea leaf dipping; format: in vivo; conditions: 4th instar larvae, 25° C.; for pest or weed control at 1 ppm / pest or weed control at 0.1 ppm / pest or weed control at 50 ppm: Adoxophyes orana, foliar; for pest or weed control at 50 ppm: single agent 50 ppm
Method: Insecticidal Test on Smaller Tea Tortrix (Adoxophyes orana fosciota)
Tea leaves were dipped in a solution of a chemical diluted to a prescribed concentration for 30 seconds. […] Four days and seven days after the treatment, the number of alive insects were counted, from which percentage of death was calculated.

[4] = system: Rice Leafroller (Cnaphalocrosis medinalis); assay: Control of rice leafroller on paddyfield rice by nursery box application, number of injured leaves; format: in vivo; conditions: single agent
Method: (§1) Test for the Control of Small Brown Planthopper (Laodelphax striatellus) and Rice Leafroller (Cnaphalocrosis medinalis) on Paddyfield Rice Plant by Nursery Box Application
(§2) Fifty grams of a granular preparation was applied to rice plant (variety: Nihombare) cultured in a nursery box, after which the rice plant was transplanted to the main paddy field (in the middle of May). The controlling effect against small brown planthopper was evaluated by investigating the number of parasitic insects on 30 hills per each plot, 40 days and 60 days after the transplantation. The controlling effect against rice leafroller was evaluated by investigating the number of injured leaves on 100 hills per each plot, 50 days after the transplantation.

[5] = system: Southern Root-Knot Nematode (Meloidogyne incognita); assay: Test for the effect on southern root-knot nematode, soil blending with granular preparation; format: in vivo; conditions: 300 g ai/10a, single agent, 60 days after treatment
Text: Test for the Effect on Southern Root-Knot Nematode (Meloidogyne incognita)
Two killograms of a soil polluted with southern root-knot nematode was blended with a predetermined dose of a granular preparation. The mixture was filled into a 1/5,000 are Wagner pot. After sowing melon seeds and carrying out the treatment of the present invention, the pot was left to stand in a greenhouse. Sixty days after the treatment, 25 g of the soil was sampled out, the nematode was separated therefrom according to the method of Berman, and the numbers of nematodes were counted after 48 hours.
In the tables, “ai” means active ingredient.

[6] = system: Small Brown Planthopper (Laodelphax striatellus); assay: Control of small brown planthopper on paddyfield rice by nursery box application, number of parasitic insects; format: in vivo; conditions: single agent
Method: as §1, §2

Aphid = assay: Control of aphid on cabbage by soil treatment, number of parasitic insects; format: in vivo; conditions: 21 days after transplanting
Method: (§3) Test for the Control of Diamondback Moth (Plutella xyloxtella) and Aphid on Cabbage by Soil Treatment
A granular preparation was mixed into bed soil, and the mixture was filled into a cell seedling box and sown with seeds of cabbage (variety: YR Seitoku). Otherwise, cell seedling planted cabbage was treated with the granular agent either by a treatment in the foliage leaf extraction period, or by a pre-transplanting treatment, or by a pricking-in hole treatment, or by a plant foot treatment after the planting. […]

Cutworm = assay: Test for the effect against cutworm on beet, drench, number of injured hills per 100 hills; format: in vivo
Method: Test for the Effect Against Cutworm on Beet
Beet seedlings (variety: Monoace S) planted in a paper pot was treated with 3 L/m^2 of a solution of an agent diluted to a predetermined concentration, by the method of drench. Just after the drench, the plant was set. Predetermined days after the setting, the number of injured hills per 100 hills was counted.

[7] = system: Citrus Yellow Thrips (Frankliniella occidentalis); assay: Control of citrus yellow thrips on egg plant by combined use with natural enemy pesticide, number of thrips; format: in vivo; conditions: 100 ppm, spray
[8] = system: Rice Water Weevil (Lissorhoptrus oryzophilus); assay: Control of rice water weevil on paddyfield rice by nursery box application, extent of injury; format: in vivo; conditions: 0.5 g ai/Box, single agent
[9] = system: Resistant Strain of Two-Spotted Spider Mite; conditions: 100 ppm, single agent, 2 days after spraying
Rice Blast = conditions: in vivo
[10] = system: Diamondback Moth (Plutella xyloxtella); assay: Control of diamondback moth on cabbage by soil treatment, number of parasitic insects; format: in vivo; conditions: 21 days after transplanting
Method: as §3
A granular preparation was mixed into bed soil, and the mixture was filled into a cell seedling box and sown with seeds of cabbage (variety: YR Seitoku). Otherwise, cell seedling planted cabbage was treated with the granular agent either by a treatment in the foliage leaf extraction period, or by a pre-transplanting treatment, or by a pricking-in hole treatment, or by a plant foot treatment after the planting. Twenty one days after the transplanting (in the middle of June), the number of parasitic insects was counted on 30 hills in the case of diamondback moth and on 10 hills in the case of aphid.

[11] = Myzus persicae, 144 h, read-out: Control degree (%)
[12] = 96 h, single agent 1 ppm, read-out: Death rate (%) After 4 days
[13] = 168 h, single agent 1 ppm, read-out: Death rate (%) After 7 days
[14] = 5 mg ai/hill, plant foot treatment
[15] = 5 mg ai/hill, pre-transplanting treatment
[16] = 5 mg ai/hill, pricking-in hole treatment
[17] = 5 mg ai/hill, soil incorporation
[18] = 5 mg ai/hill, true leaf extraction season treatment
[19] = 20 mg ai/hill, picking-in hole treatment
[20] = 20 mg ai/hill, plant foot treatment
[21] = 20 mg ai/hill, pre-transplanting treatment

CC(C)N1C(=O)N(c2ccccc2)CS/C1=N\C(C)(C)C [buprofezin]
Death rate (%) After 1 days ([1]; 0.3 ppm): 0% | Death rate (%) After 5 days ([1]; 0.3 ppm): 45%

milbemectin
Control degree (%) ([2]; 1 ppm): 82%

CC(C)(C)c1ccc(CSc2cnn(C(C)(C)C)c(=O)c2Cl)cc1 [pyridaben]
pest or weed control at 10 ppm [2, 11]: 43%

CC1=NNC(=O)N(/N=C/c2cccnc2)C1 [pymetrozin]
Death rate (%) After 1 days ([1]; 100 ppm): 10% | Death rate (%) After 5 days ([1]; 100 ppm): 40%

COC(=O)N(C(=O)N1CO[C@@]2(C(=O)OC)Cc3cc(Cl)ccc3C2=N1)c1ccc(OC(F)(F)F)cc1 [indoxacarb, reference compound]
Death rate (%) After 4 days ([3]; single agent 1 ppm): 10% | Death rate (%) After 7 days ([3]; single agent 1 ppm): 40%

O=C(NC(=O)c1c(F)cccc1F)Nc1cc(Cl)c(Oc2ncc(C(F)(F)F)cc2Cl)c(Cl)c1 [chlorfluazuron, reference compound]
pest or weed control at 1 ppm [3, 12]: 10% | pest or weed control at 1 ppm [3, 13]: 30%

Cc1cc(C(F)(F)C(F)(F)C(F)(F)F)ccc1NC(=O)c1cccc(I)c1C(=O)NC(C)C [Compound 42]
Percentage of injured leaves (%) After 50 days ([4]; 0.5 g ai/Box): 0.22% | Number of nematodes per 25 g of soil sample [5]: 28 | Number of parasitic planthoppers per 30 hills After 40 days ([6]; 0.5 g ai/Box): 345 | Number of parasitic planthoppers per 30 hills After 60 days ([6]; 0.5 g ai/Box): 389 | Number of parasitic insects per 30 hills, Aphid (Aphid; [14]): 498 | Number of parasitic insects per 30 hills, Aphid (Aphid; [15]): 435 | Number of parasitic insects per 30 hills, Aphid (Aphid; [16]): 473 | Number of parasitic insects per 30 hills, Aphid (Aphid; [17]): 475 | Number of parasitic insects per 30 hills, Aphid (Aphid; [18]): 485 | Number of injured hills per 100 hills, After 60 days (Cutworm; 15 g ai/10a): 0 | Number of injured hills per 100 hills, After 90 days (Cutworm; 15 g ai/10a): 8 | Number of injured hills per 100 hills, After 120 days (Cutworm; 15 g ai/10a): 22 | Number of parasitic insects per 20 leaves, After 60 days [7]: 19 | Number of parasitic insects per 20 leaves, After 90 days [7]: 25 | Number of parasitic insects per 20 leaves, After 120 days [7]: 50 | Extent of injury After 21 days [8]: 39.5 | Death rate (%) [9]: 0% | Areal rate of disease spot (%) After 60 days (Rice Blast): 8.3% | Control degree (%) ([2]; 100 ppm): 0% | Death rate (%) After 1 days ([1]; 100 ppm): 0% | Death rate (%) After 5 days ([1]; 100 ppm): 0% | Death rate (%) After 4 days ([3]; single agent 0.3 ppm): 0% | Death rate (%) After 7 days ([3]; single agent 0.3 ppm): 30% | Number of parasitic insects per 30 hills, Diamondback moth [10, 14]: 3 | Number of parasitic insects per 30 hills, Diamondback moth [10, 15]: 3 | Number of parasitic insects per 30 hills, Diamondback moth [10, 16]: 1 | Number of parasitic insects per 30 hills, Diamondback moth [10, 17]: 3 | Number of parasitic insects per 30 hills, Diamondback moth [10, 18]: 2

CCOC(=O)CCN(SN(C)C(=O)Oc1cccc2c1OC(C)(C)C2)C(C)C [benfuracarb]
Percentage of injured leaves (%) After 50 days ([4]; 2.5 g ai/Box): 1.13% | Number of parasitic planthoppers per 30 hills After 40 days ([6]; 2.5 g ai/Box): 78 | Number of parasitic planthoppers per 30 hills After 60 days ([6]; 2.5 g ai/Box): 244

COc1cccc(C(=O)NN(C(=O)c2cc(C)cc(C)c2)C(C)(C)C)c1C [methoxyfenozide, reference compound]
pest or weed control at 0.1 ppm ([3]; 96 h, single agent 0.1 ppm, read-out: Death rate (%) After 4 days): 0% | pest or weed control at 0.1 ppm ([3]; 168 h, single agent 0.1 ppm, read-out: Death rate (%) After 7 days): 50%

emamectin-benzoate [reference compound]
Death rate (%) After 4 days ([3]; single agent 0.1 ppm): 10% | Death rate (%) After 7 days ([3]; single agent 0.1 ppm): 45%

CNC(=O)O/N=C(\SC)C(=O)N(C)C [oxamyl]
Number of nematodes per 25 g of soil sample [5]: 13

COP(=O)(NC(C)=O)SC (stereo not shown) [acephate]
Number of injured hills per 100 hills, After 60 days (Cutworm; 50 g ai/10a): 2 | Number of injured hills per 100 hills, After 90 days (Cutworm; 50 g ai/10a): 14 | Number of injured hills per 100 hills, After 120 days (Cutworm; 50 g ai/10a): 24 | pest or weed control at 10 ppm [2, 11]: 48%

O=C(NC(=O)c1c(F)cccc1F)Nc1ccc(Oc2ccc(C(F)(F)F)cc2Cl)cc1F [flufenoxuron]
pest or weed control at 50 ppm ([2]; Myzus persicae, 144 h, 50 ppm, read-out: Control degree (%)): 11%

CCOP(=S)(OCC)Oc1nc(Cl)c(Cl)cc1Cl [chlorpyriphos, reference compound]
pest or weed control at 1 ppm [3, 12]: 10% | pest or weed control at 1 ppm [3, 13]: 10%

CCOCn1c(-c2ccc(Cl)cc2)c(C#N)c(Br)c1C(F)(F)F [chlorfenapyr, reference compound]
pest or weed control at 1 ppm [3, 12]: 0% | pest or weed control at 1 ppm [3, 13]: 0%

CC(C)([CH2][Sn]([CH2]C(C)(C)c1ccccc1)([CH2]C(C)(C)c1ccccc1)[O][Sn]([CH2]C(C)(C)c1ccccc1)([CH2]C(C)(C)c1ccccc1)[CH2]C(C)(C)c1ccccc1)c1ccccc1 [fenbutatin oxide]
Death rate (%) [9]: 50%

CC(C)(COCc1cccc(Oc2ccccc2)c1)c1ccc(OC(F)(F)Br)cc1 [halfenprox]
Death rate (%) [9]: 35%

CCOP(=O)(SC(C)CC)N1CCSC1=O (stereo not shown) [fosthiazate]
Number of nematodes per 25 g of soil sample [5]: 7

CCc1nn(C)c(C(=O)NCc2ccc(C(C)(C)C)cc2)c1Cl [tebufenpyrad]
Death rate (%) [9]: 60%

CCOc1ccc([Si](C)(C)CCCc2ccc(F)c(Oc3ccccc3)c2)cc1 [silafluofen]
Death rate (%) After 1 days ([1]; 1 ppm): 30% | Death rate (%) After 5 days ([1]; 1 ppm): 30%

Cc1nn(C)c(Oc2ccccc2)c1C=NOCc1ccc(C(=O)OC(C)(C)C)cc1 [fenpyroximate, reference compound]
pest or weed control at 50 ppm ([3]; 96 h, read-out: Death rate (%) After 4 days): 0% | pest or weed control at 50 ppm ([3]; 168 h, read-out: Death rate (%) After 7 days): 0%

Cc1c(COC(=O)[C@@H]2[C@H](/C=C(\Cl)C(F)(F)F)C2(C)C)cccc1-c1ccccc1 (racemic) [bifenthrin]
pest or weed control at 0.1 ppm [2, 11]: 80%

O=[N+]([O-])NC1=NCCN1Cc1ccc(Cl)nc1 [imidacloprid]
Percentage of injured leaves (%) After 50 days ([4]; 1 g ai/Box): 1.63% | Number of parasitic planthoppers per 30 hills After 40 days ([6]; 1 g ai/Box): 0 | Number of parasitic planthoppers per 30 hills After 60 days ([6]; 1 g ai/Box): 29 | Number of parasitic insects per 30 hills, Aphid (Aphid; [19]): 16 | Number of parasitic insects per 30 hills, Aphid (Aphid; [20]): 13 | Number of parasitic insects per 30 hills, Aphid (Aphid; [21]): 10 | pest or weed control at 0.1 ppm [2, 11]: 69% | Death rate (%) After 1 days ([1]; 0.1 ppm): 35% | Death rate (%) After 5 days ([1]; 0.1 ppm): 35% | Number of parasitic insects per 30 hills, Diamondback moth [10, 19]: 40 | Number of parasitic insects per 30 hills, Diamondback moth [10, 20]: 38 | Number of parasitic insects per 30 hills, Diamondback moth [10, 21]: 35
